The conditions of the data set: in water.

Usually solubility (mole fraction) stands for the moles of solute divided by all moles in the saturated solution.

`Cc1ccc(C(C)C)cc1`: the solubility (mole fraction) turned out to be 4.8e-06 (298.15 K); 6.9e-06 (303.15 K); 9.9e-06 (308.15 K); 1.24e-05 (313.15 K); 1.51e-05 (318.15 K); 1.89e-05 (323.15 K).
Regarding `Cc1ccc(C)cc1`, the solubility (mole fraction) by setting is: (298.15 K) 2.62e-05; (308.15 K) 3.07e-05; (323.15 K) 3.65e-05.
In turn, `CC(C)=CCCC(C)CCO` (stereo not drawn) had a solubility (mole fraction) (298.15 K) of 0.000218; a solubility (mole fraction) (303.15 K) of 0.000187; a solubility (mole fraction) (308.15 K) of 0.000187; a solubility (mole fraction) (313.15 K) of 0.000208; a solubility (mole fraction) (318.15 K) of 0.000249; a solubility (mole fraction) (323.15 K) of 0.000308.
Turning to `Cc1ccccc1`, the solubility (mole fraction) by setting is: (298.15 K) 0.000113; (308.15 K) 0.000118; (313.15 K) 0.00012; (323.15 K) 0.000126.
Consider `C=CC(C)(O)CCC=C(C)C` (stereo not drawn), for which the solubility (mole fraction) was determined as 0.000181 (298.15 K); 0.000332 (303.15 K); 0.000472 (308.15 K); 0.000592 (313.15 K); 0.000844 (318.15 K); 0.00111 (323.15 K).
On to `CC(C)=CCC/C(C)=C/CO`, for which the solubility (mole fraction) runs as follows: (298.15 K) 0.000103; (303.15 K) 0.000139; (308.15 K) 0.000375; (313.15 K) 0.000643; (318.15 K) 0.000922; (323.15 K) 0.00127.
Consider `C=CCc1ccc(O)c(OC)c1`, for which the solubility (mole fraction) amounted to 0.000228 (298.15 K); 0.00023 (303.15 K); 0.000254 (308.15 K); 0.000254 (313.15 K); 0.000286 (318.15 K); 0.000312 (323.15 K).
On to `Cc1ccc(C(C)C)cc1O`, for which the solubility (mole fraction) is, setting by setting: (298.15 K) 0.000144; (303.15 K) 0.000155; (308.15 K) 0.000164; (313.15 K) 0.000169; (318.15 K) 0.00017; (323.15 K) 0.000172.

The record behind these values is BigSolDB 2.1.
